In publication PMC6254361, “The properties of Msh2–Msh6 ATP binding mutants suggest a signal amplification mechanism in DNA mismatch repair” (The Journal of Biological Chemistry, 2018):

Target: T1, Msh2–Msh6 (Saccharomyces cerevisiae, UniProt P25847+Q03834, Q03834:K988R)
T1 sequence (P25847 1-964): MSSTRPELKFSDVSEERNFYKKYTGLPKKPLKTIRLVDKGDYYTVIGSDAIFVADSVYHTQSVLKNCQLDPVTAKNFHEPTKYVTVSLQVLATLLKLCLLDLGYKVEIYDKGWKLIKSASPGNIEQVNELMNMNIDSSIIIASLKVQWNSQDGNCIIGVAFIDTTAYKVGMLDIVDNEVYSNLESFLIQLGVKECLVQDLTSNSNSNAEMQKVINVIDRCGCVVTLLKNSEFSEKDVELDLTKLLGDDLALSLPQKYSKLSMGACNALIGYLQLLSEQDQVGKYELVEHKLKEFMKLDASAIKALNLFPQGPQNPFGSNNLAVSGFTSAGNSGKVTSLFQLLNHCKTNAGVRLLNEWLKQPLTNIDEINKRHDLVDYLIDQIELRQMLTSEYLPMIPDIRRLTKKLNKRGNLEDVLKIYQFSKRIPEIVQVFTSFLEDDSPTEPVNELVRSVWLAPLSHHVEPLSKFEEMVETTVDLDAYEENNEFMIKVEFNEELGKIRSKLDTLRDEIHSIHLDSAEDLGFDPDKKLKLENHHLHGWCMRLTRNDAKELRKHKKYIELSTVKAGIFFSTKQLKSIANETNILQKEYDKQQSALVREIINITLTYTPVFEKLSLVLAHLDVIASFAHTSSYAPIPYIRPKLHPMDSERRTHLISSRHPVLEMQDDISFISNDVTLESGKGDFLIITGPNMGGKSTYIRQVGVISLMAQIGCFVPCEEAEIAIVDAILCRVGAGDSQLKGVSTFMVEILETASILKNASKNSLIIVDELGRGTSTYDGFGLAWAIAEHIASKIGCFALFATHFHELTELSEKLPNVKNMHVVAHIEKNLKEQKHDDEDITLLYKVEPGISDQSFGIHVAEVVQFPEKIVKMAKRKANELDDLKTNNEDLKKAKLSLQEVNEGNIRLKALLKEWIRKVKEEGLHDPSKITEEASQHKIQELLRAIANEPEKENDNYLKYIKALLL
T1 sequence (Q03834 1-1242 K988R): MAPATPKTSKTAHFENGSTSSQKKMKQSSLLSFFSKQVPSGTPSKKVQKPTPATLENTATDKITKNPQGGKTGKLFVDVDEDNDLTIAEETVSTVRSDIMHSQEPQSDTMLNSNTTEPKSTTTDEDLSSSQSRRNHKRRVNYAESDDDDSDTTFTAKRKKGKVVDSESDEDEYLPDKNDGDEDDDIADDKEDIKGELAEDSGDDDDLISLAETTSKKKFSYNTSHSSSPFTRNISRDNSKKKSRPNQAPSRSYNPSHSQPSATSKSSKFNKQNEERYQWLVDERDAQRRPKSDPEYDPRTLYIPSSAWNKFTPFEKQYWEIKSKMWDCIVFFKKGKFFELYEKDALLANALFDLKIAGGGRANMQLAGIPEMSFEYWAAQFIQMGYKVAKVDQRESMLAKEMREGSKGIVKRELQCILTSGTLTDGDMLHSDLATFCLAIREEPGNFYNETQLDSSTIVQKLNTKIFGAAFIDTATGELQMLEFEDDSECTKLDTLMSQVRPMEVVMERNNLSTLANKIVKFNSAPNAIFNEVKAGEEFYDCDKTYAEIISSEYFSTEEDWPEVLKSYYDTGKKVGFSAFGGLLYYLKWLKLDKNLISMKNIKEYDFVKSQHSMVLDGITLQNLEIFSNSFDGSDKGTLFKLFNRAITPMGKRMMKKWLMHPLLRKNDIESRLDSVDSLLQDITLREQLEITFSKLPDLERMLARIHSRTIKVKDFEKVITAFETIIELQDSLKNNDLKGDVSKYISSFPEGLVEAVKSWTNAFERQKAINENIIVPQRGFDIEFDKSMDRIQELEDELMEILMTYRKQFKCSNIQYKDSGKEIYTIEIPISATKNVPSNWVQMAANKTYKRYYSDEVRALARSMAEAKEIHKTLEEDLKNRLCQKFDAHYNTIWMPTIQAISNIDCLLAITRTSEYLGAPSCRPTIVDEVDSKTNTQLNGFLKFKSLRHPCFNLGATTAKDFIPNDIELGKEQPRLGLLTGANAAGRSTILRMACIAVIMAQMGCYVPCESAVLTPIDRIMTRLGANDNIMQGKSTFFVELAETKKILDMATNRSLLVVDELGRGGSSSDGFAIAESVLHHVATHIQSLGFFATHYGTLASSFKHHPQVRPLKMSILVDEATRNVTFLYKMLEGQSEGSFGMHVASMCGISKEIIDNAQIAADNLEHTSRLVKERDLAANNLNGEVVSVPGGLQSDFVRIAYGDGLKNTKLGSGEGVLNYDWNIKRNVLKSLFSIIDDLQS
Test: UV cross-linking of [γ-32P]ATP, SDS-PAGE, phosphorimaging
Format: binding
Details: labelled compound; no Mg2+, EDTA, pH 8, on ice; Msh2 site at 60 μM ATP, Msh6 site at 1 μM ATP

Nc1ncnc2c1ncn2[C@@H]1O[C@H](COP(=O)(O)OP(=O)(O)OP(=O)(O)O)[C@@H](O)[C@H]1O [ATP]
relative ATP binding: Msh2–Msh6(K988A) and Msh2–Msh6(K988R) mutant complexes had partial ATP binding defects at the Msh2 subunit
